As usually defined, the melting point is the temperature, or range, at which the solid turns liquid.

Residues, ends and D or L forms follow the SMILES beside them.

Results on 65 compounds are retold here after a melting point compilation (Tetko et al.; mined from patent text by program, amines drawn as free bases though some values may be those of a salt).

In turn, `COC(=O)N1CCC(=O)C(C2(NO)OCCO2)CC1` (stereo not given) showed a melting point of 152 to 154 °C.

`CC(=O)SCC(Cc1ccccc1)C(=O)Nc1cccc(C(=O)N[C@@H](Cc2ccccc2)C(=O)OCc2ccccc2)c1` (stereo not given in full) registered a melting point of 89 to 91 °C. In the case of `CC1(O)ON=C(c2ccc(Br)cc2)C1c1ccccc1` (stereo not given) it was 153 °C; in that of `Cc1ccc2c(c1)C(=O)N(C)CC(=O)N2`, 243 to 244 °C; in that of `CCSC(C#N)C1=NCCc2cc(OC)c(OC)cc21` (stereo not given), 113 to 115 °C.

On to `CC(=O)c1ccc(Oc2ccc(-c3scc(-c4ccccc4Cl)c3CC(=O)N=C(N)N)cc2)cc1`, for which the melting point lay in the range of 117 to 118 °C. With `C1=C(c2ccccc2)CCN(Cc2cc3ccccc3[nH]2)C1`, the melting point lay in the range of 128 to 130 °C. `O=CNC1=NN(c2cccc(F)c2)C(c2ccc(Cl)cc2)C1` (stereo not given) yielded a melting point of 128 to 130 °C. As to `CNS(=O)(=O)c1ccc(Nc2cc(N3CCCC3)cc(-c3ccc(OC(F)(F)F)cc3)n2)cc1`, the melting point was in the range of 83 to 85 °C.

The compound `CC(=O)N(C)C(Cc1ccccc1N)c1ccccn1` (stereo not given) returned a melting point of 103 to 107 °C. In the case of `CCNC(=O)Nc1scc(-c2ccccc2)c1C(=O)OCC` it was 109 to 112 °C; in that of `COC(C(N)=O)C(=O)O` (stereo not given), 128 to 130 °C.

With `CCCc1ccc2ncc(C(=O)NCc3ccc(Cl)cc3)c(O)c2c1`, the melting point was 225 to 227 °C.

For `NC(=O)C(=O)NCCc1ccc(OCc2ccccc2)c(OCc2ccccc2)c1`, the melting point worked out at 187 °C. In the case of `Nc1nnn(C2CN3CCC2CC3)n1` (stereo not given) it was 132 to 134 °C. In the case of `CCCCc1nc(O)c(CC(=O)OCC)c(O)n1` it was 260 °C; in that of `COc1cc2cc3ncc(C#N)c(Nc4ccc(Oc5ccccc5)cc4)c3cc2cc1OC`, more than 265 °C; in that of `Cc1ccc(CNc2cccc(C(=O)O)c2C(=O)O)o1`, 305 to 307 °C. `CC(=O)N1CCN(N)c2ccccc2C1` showed a melting point of 66 to 68 °C. In turn, `CSCC[C@H](NC(=O)OC(C)(C)C)C(=O)Oc1ccc(NC(C)=O)cc1` gave a melting point of 225 to 228 °C. In the case of `CON=C1CN(c2cc3c(cc2F)c(=O)c(C(=O)O)cn3-c2ccc(F)cc2F)CC12CN(C(=O)OC(C)(C)C)C2` it was 263 to 264 °C; in that of `COCCN(C)Cc1ccc(NC(=O)C2=Cc3cc(-c4ccc(C)cc4)ccc3OCC2)cc1`, 121 to 122 °C; in that of `CC(C)(C)OC(=O)NCCSc1cccc2nccn12`, 105 to 107 °C. The compound `O=C1c2ccccc2C(=O)N1Cc1cc([N+](=O)[O-])cc([N+](=O)[O-])c1` had a melting point of 171 °C. `CC(C)(C)OC(=O)N[C@@H](Cc1cscn1)C(=O)O` yielded a melting point of 115 °C. In the case of `Cc1ccc(/C=C/C2=CCN(Cc3ccc(Cl)cc3)CC2)cc1` it was 122 to 124 °C; in that of `O=C1CC(c2ccc(Oc3ccc(C(F)(F)F)cc3)cc2)Cc2ccccc21` (stereo not given), 136 to 137 °C. `COC(=O)Cn1c(Cc2ccccc2)ccc(NC(=O)CCc2ccccc2)c1=O` showed a melting point of 95 to 97 °C. In turn, `COc1ccc(C(=O)CBr)cc1C12CC3CC(CC(C3)C1)C2` returned a melting point of 140 to 141 °C. The compound `CCN(CC)CCNC(=O)c1cc(Cl)c(N)cc1OCC(OC)OC` returned a melting point of 64 to 67 °C.

For `CCCCCC(C)(C)NC(=O)CN1C(=O)c2ccccc2C1=O`, the melting point was determined as 142 °C. In the case of `COc1cc2c(cc1OC)CNCC2` it was 139 to 141 °C; in that of `O=c1cc(-c2ccc(O)c(CO)c2)oc2cccnc12`, 226 to 227 °C; in that of `COC(=O)C(Cc1ccccc1)NC(=O)C(CC(=O)O)NC(=O)C(N)CO` (stereo not drawn) (H-Ser-Asp-Phe-OMe; configuration not given here), 196 to 199 °C. The compound `Cc1cc2n(C)c(=O)c3cnccc3n2n1` had a melting point of more than 300 °C. `Cc1ccc(C2CCN(C(=O)Nc3ccc4nc(CN5CCCC5)ccc4c3)CC2)cc1` yielded a melting point of 214 to 216 °C. As to `O=S(=O)(NCC1CCOCC1)c1ccc(Cl)cc1`, the melting point was in the range of 118 to 119 °C. As for `CC1(C)CC(=O)c2cc(SCc3ccccc3)[nH]c2C1`, the melting point lay in the range of 148 to 150 °C. Take `CCCNC(=O)C(C#N)=NNc1ccccc1-c1ccccc1`: the melting point is 180 to 184 °C. In the case of `O=C(OCc1ccccc1)c1ccc2cc(-c3ccc(C(O)CO)c(C45CC6CC(CC(C6)C4)C5)c3)ccc2c1` (stereo not given) it was 193 °C; in that of `O=C(O)C(=O)c1ccc(OCCOc2ccc([N+](=O)[O-])cc2)cc1`, 129 to 130 °C.

Consider `ClCCCCCOc1ccc(C2=C(c3ccccc3)CCCc3cc(OC4CCCCO4)ccc32)cc1` (stereo not given), for which the melting point was 99 to 101 °C. In the case of `CC(=O)Nc1ccc(-c2c[nH]c(=O)c(C)n2)cc1` it was more than 300 °C. In the case of `O=Cc1ccc(OC2CCCC2)c2oc3ccc([N+](=O)[O-])cc3c12` it was 230 to 240 °C. In the case of `O=C(O)c1cn(C2CC2)c2c(F)c(N3C[C@H](CF)[C@H](NC(=O)C(F)(F)F)C3)c(F)c(F)c2c1=O` (relative stereo) it was 283 to 284 °C; in that of `CCCCOc1ccc(NC(=O)NCC2(c3ccccc3)CCCCC2)cc1`, 142 to 143 °C; in that of `COC(=O)c1cccc(N)c1NCc1ccc(-c2ccccc2C#N)cc1`, 110 to 111 °C. In turn, `CCc1cc(-c2ccc(-c3cc[nH]n3)cc2)ccc1OC` yielded a melting point of 164 to 168 °C.

Compound `CN(C)Cc1ccc2c(c1)c(C1CCN(CCN3CCNC3=O)CC1)cn2-c1ccc(F)cc1` showed a melting point of 166 to 174 °C. For the compound `NNC(=O)CCc1cccc(C(F)(F)F)c1`, the melting point was 80 to 81 °C. With `CN(Cc1ccccc1)c1nc2c(cc1C#N)C(=O)CC(C)(C)C2`, the melting point is 97 to 99 °C.

Take `COC(=O)N1CC1C(N)=O` (stereo not given): the melting point fell in the range of 117 to 120 °C. With `CC(=O)NCc1nc(-c2csc(N=C(N)N)n2)cs1`, the melting point fell in the range of 255 to 256 °C. In turn, `CCn1c(=O)c2c(nc(/C=C/c3ccc(OCC(C)=O)c(OC)c3)n2C)n(CC)c1=O` yielded a melting point of 206 °C. In the case of `Cc1cccc(NS(=O)(=O)c2cc(S(=O)(=O)Nc3cccc(C)c3)c3cc(O)ccc3c2)c1` it was 115 to 117 °C. In the case of `Cn1c(C(F)(F)F)cc2ccccc21` it was 28 to 32 °C; in that of `CC(C)Nn1nnnc1S`, 92 to 95 °C. In the case of `CSC(=S)NCCCN1CCN(c2ccccc2)CC1` it was 75 to 79 °C; in that of `c1ccc(Oc2nnns2)cc1`, 35 to 36 °C; in that of `CCOC(=O)C(Cc1ccc(NC(C)=O)c([N+](=O)[O-])c1)(NC(C)=O)C(=O)OCC`, 172 °C. `Cc1cc(-n2ccnc2)c2cccc(OCc3c(Cl)ccc(S(=O)(=O)N4CC[C@H]4C(=O)O)c3Cl)c2n1` yielded a melting point of 160 °C. In the case of `CC(=O)N(CCCn1cncn1)C1=Nc2cccc3cccc1c23` it was 128 to 129 °C; in that of `Cn1ccc(-n2ccnc2S)n1`, 126 to 128 °C. For the compound `O=c1c2cc(Cl)ccc2nc2n1CCCC2=Cc1ccccc1`, the melting point is 121 to 123 °C. In the case of `C=Cc1cccc(N)c1` it was 80 °C.
